Columns and labels:
[1] = molecular target: recombinant RORγ Ligand Binding Domain (LBD) protein (Homo sapiens (Human), UniProt P51449); assay: Radio-Ligand RORγ Binding Assay (Assay 1); conditions: radio-ligand 25-hydroxy [26,27-3H]-cholesterol competition
Experimental: Radio-Ligand RORγ Binding Assay (Assay 1)
Compounds described herein were tested for ability to bind to RORγ in a cell-free competition assay with commercially available radio-ligand (RL), 25-hydroxy [26,27-^3H]-cholesterol (PerkinElmer, Cat. # NET674250UC), for a ligand binding site on a recombinant RORγ Ligand Binding Domain (LBD) protein expressed as a 6×His-Glutathione-S-Transferase (GST) fusion. […] The plate was shaken at 700 rpm for 20 min and incubated for 10 min at rt, after which 40 μL of poly-Lys YSi SPA beads (PerkinElmer, Cat. # RPNQ0010) were added to achieve 50 μg of the beads per well. The plate was incubated on an orbital shaker for 20 min and then for 10 min without agitation at rt. SPA signal for tritium beta radiation was registered on PerkinElmer Microbeta plate reader. […] The percent inhibition vs. concentration data were fit into a four-parameter model, and IC50 values were calculated from the fit as the concentrations corresponding to the inflection points on the dose-response curves. […]

[2] = molecular target: full-length RORγt in Jurkat cells (Homo sapiens (Human), UniProt P51449); assay: RORγt 5×RORE Assay in Jurkat Cells (Assay 2); format: cell-based; conditions: RORγt 5×RORE Nanoluc reporter
Experimental: [formula] RORγt 5×RORE Assay in Jurkat Cells (Assay 2)
Compounds described herein were tested for RORγ inverse agonist activity in a cell-based, transcriptional activity assay. […] (Promega, Cat. # N1021) using KpnI and HindIII restriction sites. […] Tested compounds were added to the cells in the same media (final concentration of DMSO was 0.1% (v/v)), and the plates were incubated at 37° C./5% CO2 for 16-18 hrs. Luciferase activity in the conditioned supernatants was determined with NanoGlo® assay reagents (Promega, Cat.# N1130).

recombinant RORγ Ligand Binding Domain (LBD) protein, sequence (P51449 269-508): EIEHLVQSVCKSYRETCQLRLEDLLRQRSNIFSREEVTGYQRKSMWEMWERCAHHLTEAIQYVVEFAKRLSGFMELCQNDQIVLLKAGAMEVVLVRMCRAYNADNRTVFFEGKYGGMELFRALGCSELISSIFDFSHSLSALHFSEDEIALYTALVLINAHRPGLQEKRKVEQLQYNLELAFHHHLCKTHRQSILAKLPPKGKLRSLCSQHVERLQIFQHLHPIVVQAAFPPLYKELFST
full-length RORγt in Jurkat cells, sequence (P51449 other isoform, or with tags, fused parts or gaps): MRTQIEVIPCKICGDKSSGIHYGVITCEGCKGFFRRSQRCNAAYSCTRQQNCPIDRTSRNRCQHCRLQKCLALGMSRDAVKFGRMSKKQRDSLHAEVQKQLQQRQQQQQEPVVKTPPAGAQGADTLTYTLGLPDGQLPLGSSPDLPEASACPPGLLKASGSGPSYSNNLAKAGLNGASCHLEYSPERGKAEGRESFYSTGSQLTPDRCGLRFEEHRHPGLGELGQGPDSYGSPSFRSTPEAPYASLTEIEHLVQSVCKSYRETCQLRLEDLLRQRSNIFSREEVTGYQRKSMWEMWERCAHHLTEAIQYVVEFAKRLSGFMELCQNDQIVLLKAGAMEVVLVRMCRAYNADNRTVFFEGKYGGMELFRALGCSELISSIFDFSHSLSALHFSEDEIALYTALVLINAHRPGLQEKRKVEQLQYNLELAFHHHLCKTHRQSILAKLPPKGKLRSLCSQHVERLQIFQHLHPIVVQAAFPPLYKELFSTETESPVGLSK

| Molecule | Ki [1] [nM] | IC50 [2] [nM] |
| --- | --- | --- |
| 1-ethyl-N-(4-(ethylsulfonyl)benzyl)-2-(((1s,4s)-4-(trifluoromethyl)cyclohexyl)methyl)-1H-indole-5-carboxamide [IN-17.2] | < 100 | > 1000 |
| 1-ethyl-N-((5-(ethylsulfonyl)pyridin-2-yl)methyl)-2-(((1s,4s)-4-(trifluoromethyl)cyclohexyl)methyl)-1H-indole-5-carboxamide [IN-15.2] | < 100 | > 1000 |
| 1-ethyl-N-((R)-1-(4-(ethylsulfonyl)phenyl)-2-hydroxyethyl)-2-(((1s,4S)-4-(trifluoromethyl)cyclohexyl)methyl)-1H-indole-5-carboxamide [IN-16.2] | < 100 | > 1000 |
| CCn1c(CC2CCC(C(F)(F)F)OC2)nc2cc(C(=O)NCc3ccc(S(=O)(=O)CC)cc3)ccc21 (single isomer, unassigned) [BE-56.1, 1-ethyl-N-(4-(ethylsulfonyl)benzyl)-2-((6-(trifluoromethyl)tetrahydro-2H-pyran-3-yl)methyl)-1H-benzo[d]imidazole-5-carboxamide] | 100 to 1000 |  |
| CCn1c(CC2CCC(C(F)(F)F)OC2)nc2cc(C(=O)NCc3ccc(S(=O)(=O)CC)cc3)ccc21 (single isomer, unassigned) [BE-56.2, 1-ethyl-N-(4-(ethylsulfonyl)benzyl)-2-((6-(trifluoromethyl)tetrahydro-2H-pyran-3-yl)methyl)-1H-benzo[d]imidazole-5-carboxamide] | 100 to 1000 |  |
| CCn1c(CC2CCC(C(F)(F)F)OC2)nc2cc(C(=O)NCc3ccc(S(=O)(=O)CC)cc3)ccc21 (single isomer, unassigned) [BE-56.3, 1-ethyl-N-(4-(ethylsulfonyl)benzyl)-2-((6-(trifluoromethyl)tetrahydro-2H-pyran-3-yl)methyl)-1H-benzo[d]imidazole-5-carboxamide] | 100 to 1000 |  |
| CCS(=O)(=O)c1ccc([C@H](CO)NC(=O)c2ccc3c(c2)nc(COC2CCC(C(F)(F)F)CC2)n3C2CC2)cc1 (single isomer, unassigned) [BE-71.1] | < 100 | < 100 |
| CCS(=O)(=O)c1ccc([C@H](CO)NC(=O)c2ccc3c(c2)nc(CO[C@H]2CC[C@H](C(F)(F)F)CC2)n3C2CC2)cc1 (single isomer, unassigned) [BE-71.2] | < 100 | < 100 |
| CCS(=O)(=O)c1ccc(CNC(=O)c2cnc3c(c2)nc(C[C@H]2CC[C@H](C(F)(F)F)CC2)n3C2CC2)cc1 [AB-1.1, 3-cyclopropyl-N-(4-(ethylsulfonyl)benzyl)-2-(((1r,4r)-4-(trifluoromethyl)cyclohexyl)methyl)-3H-imidazo[4,5-b]pyridine-6-carboxamide] | < 100 | < 100 |
| CCS(=O)(=O)c1ccc(CNC(=O)c2cnc3c(c2)nc(C[C@H]2CC[C@@H](C(F)(F)F)CC2)n3C2CC2)cc1 [AB-1.2, 3-cyclopropyl-N-(4-(ethylsulfonyl)benzyl)-2-(((1s,4s)-4-(trifluoromethyl)cyclohexyl)methyl)-3H-imidazo[4,5-b]pyridine-6-carboxamide] | < 100 | > 1000 |
| CS(=O)(=O)c1ccc(CNC(=O)c2cnc3c(c2)nc(Cc2ccc(C(F)(F)F)cc2)n3C2CC2)cc1 [AB-2, 3-cyclopropyl-N-(4-(methylsulfonyl)benzyl)-2-(4-(trifluoromethyl)benzyl)-3H-imidazo[4,5-b]pyridine-6-carboxamide] | 100 to 1000 |  |
| CCS(=O)(=O)c1ccc(CNC(=O)c2cnc3c(c2)nc(Cc2ccc(C(F)(F)F)cc2)n3C2CC2)cc1 [AB-3, 3-cyclopropyl-N-(4-(ethylsulfonyl)benzyl)-2-(4-(trifluoromethyl)benzyl)-3H-imidazo[4,5-b]pyridine-6-carboxamide] | < 100 | < 100 |
| CCS(=O)(=O)c1ccc(CNC(=O)c2cnc3c(c2)cc(C[C@H]2CC[C@H](C(F)(F)F)CC2)n3C2CC2)cc1 [AI-1, 1-cyclopropyl-N-(4-(ethylsulfonyl)benzyl)-2-(((1r,4r)-4-(trifluoromethyl)cyclohexyl)methyl)-1H-pyrrolo[2,3-b]pyridine-5-carboxamide] | < 100 | < 100 |
| C=C(C)Cn1c(Cc2ccc(C(F)(F)F)cc2)cc2cc(C(=O)NCc3ccc(S(=O)(=O)CC)cc3)cnc21 [AI-3, N-(4-(ethylsulfonyl)benzyl)-1-(2-methylallyl)-2-(4-(trifluoromethyl)benzyl)-1H-pyrrolo[2,3-b]pyridine-5-carboxamide] | < 100 |  |
| CCS(=O)(=O)c1ccc([C@H](CO)NC(=O)c2ccc3c(c2)nc(O[C@H]2CC[C@H](C(F)(F)F)CC2)n3C2CC2)cc1 [BE-1, 1-cyclopropyl-N-((R)-1-(4-(ethylsulfonyl)phenyl)-2-hydroxyethyl)-2-(((1r,4R)-4-(trifluoromethyl)cyclohexyl)oxy)-1H-benzo[d]imidazole-5-carboxamide] | < 100 | < 100 |
| CCn1c(O[C@H]2CC[C@H](C(F)(F)F)CC2)nc2cc(C(=O)NCc3ccc(S(=O)(=O)CC)cc3)ccc21 [BE-2, 1-ethyl-N-(4-(ethylsulfonyl)benzyl)-2-(((1r,4r)-4-(trifluoromethyl)cyclohexyl)oxy)-1H-benzo[d]imidazole-5-carboxamide] | < 100 | < 100 |
| CCS(=O)(=O)c1ccc(CNC(=O)c2ccc3c(c2)nc(O[C@H]2CC[C@H](C(F)(F)F)CC2)n3CC(C)C)cc1 [BE-4.1, N-(4-(ethylsulfonyl)benzyl)-1-isobutyl-2-(((1r,4r)-4-(trifluoromethyl)cyclohexyl)oxy)-1H-benzo[d]imidazole-5-carboxamide] | < 100 | 100 to 1000 |
| CCn1c(Oc2ccc(C(F)(F)F)cc2)nc2cc(C(=O)N[C@@H](CN(C)C)c3ccc(S(=O)(=O)CC)cc3)ccc21 [BE-10, (R)-N-(2-(dimethylamino)-1-(4-(ethylsulfonyl)phenyl)ethyl)-1-ethyl-2-(4-(trifluoromethyl)phenoxy)-1H-benzo[d]imidazole-5-carboxamide] | 100 to 1000 |  |
| CCS(=O)(=O)c1ccc([C@@H](CO)NC(=O)c2ccc3c(c2)nc(C[C@H]2CC[C@H](C(F)(F)F)CC2)n3C2CC2)nc1 [BE-29, 1-cyclopropyl-N-((S)-1-(5-(ethylsulfonyl)pyridin-2-yl)-2-hydroxyethyl)-2-(((1r,4S)-4-(trifluoromethyl)cyclohexyl)methyl)-1H-benzo[d]imidazole-5-carboxamide] | > 1000 |  |
| CCS(=O)(=O)c1ccc(CNC(=O)c2ccc3c(c2)nc(Cc2ccc(C(F)(F)F)cc2)n3C2CCC2)cc1 [BE-38, 1-cyclobutyl-N-(4-(ethylsulfonyl)benzyl)-2-(4-(trifluoromethyl)benzyl)-1H-benzo[d]imidazole-5-carboxamide] | < 100 |  |
| CCS(=O)(=O)c1ccc(CNC(=O)c2ccc3c(c2)nc(Cc2ccc(C(F)(F)F)cc2)n3CC(C)C)nc1 [BE-43, N-((5-(ethylsulfonyl)pyridin-2-yl)methyl)-1-isobutyl-2-(4-(trifluoromethyl)benzyl)-1H-benzo[d]imidazole-5-carboxamide] | < 100 |  |
| CCS(=O)(=O)c1ccc(CNC(=O)c2cc(Br)c3c(c2)nc(C[C@H]2CC[C@H](C(F)(F)F)CC2)n3C)cc1 [BE-58, 7-bromo-N-(4-(ethylsulfonyl)benzyl)-1-methyl-2-(((1r,4r)-4-(trifluoromethyl)cyclohexyl)methyl)-1H-benzo[d]imidazole-5-carboxamide] | 100 to 1000 |  |
| CCS(=O)(=O)c1ccc(CNC(=O)c2cc(Br)c3c(c2)nc(Cc2ccc(C(F)(F)F)cc2)n3C)cc1 [BE-59, 7-bromo-N-(4-(ethylsulfonyl)benzyl)-1-methyl-2-(4-(trifluoromethyl)benzyl)-1H-benzo[d]imidazole-5-carboxamide] | 100 to 1000 |  |
| CCS(=O)(=O)c1ccc(CNC(=O)c2ccc3c(c2)nc(C(=O)C2CCC(C(F)(F)F)CC2)n3C2CC2)cc1 (stereo not shown) [BE-64, 1-cyclopropyl-N-(4-(ethylsulfonyl)benzyl)-2-(4-(trifluoromethyl)cyclohexane-1-carbonyl)-1H-benzo[d]imidazole-5-carboxamide] | < 100 |  |
| CCS(=O)(=O)c1ccc(CC(=O)Nc2ccc3c(c2)nc(Cc2ccc(C(F)(F)F)cc2)n3CC(C)C)cc1 [BE-68, 2-(4-(ethylsulfonyl)phenyl)-N-(1-isobutyl-2-(4-(trifluoromethyl)benzyl)-1H-benzo[d]imidazol-5-yl)acetamide] | < 100 |  |
| CCn1c(Cc2ccc(OC(F)F)cc2)cc2cc(C(=O)N[C@@H](CO)c3ccc(S(=O)(=O)CC)cn3)ccc21 [IN-6, (R)-2-(4-(difluoromethoxy)benzyl)-1-ethyl-N-(1-(5-(ethylsulfonyl)pyridin-2-yl)-2-hydroxyethyl)-1H-indole-5-carboxamide] | < 100 |  |
| CCn1c(Cc2cccc(OC(F)F)c2)cc2cc(C(=O)N[C@@H](CO)c3ccc(S(=O)(=O)CC)cn3)ccc21 [IN-7, (R)-2-(3-(difluoromethoxy)benzyl)-1-ethyl-N-(1-(5-(ethylsulfonyl)pyridin-2-yl)-2-hydroxyethyl)-1H-indole-5-carboxamide] | < 100 |  |
